Values quoted from earlier work as cited in patent publication US20110223312A1, “TRIGLYCERIDE-ENCAPSULATED PHYTOSTEROL MICROPARTICLES DISPERSED IN BEVERAGES” (priority 2009, published 2011).

System: plasma cholesterol

## CC[C@H](CC[C@@H](C)[C@H]1CC[C@H]2[C@@H]3CC=C4C[C@@H](O)CC[C@]4(C)[C@H]3CC[C@]12C)C(C)C [beta sitosterol]
12-18 g per day in divided doses, males with atherosclerosis (Faquhar et al. 1956)
  lowering of serum cholesterol: 15-20%

## CC[C@H](CC[C@@H](C)[C@H]1CC[C@H]2[C@@H]3CC=C4C[C@@H](O)CC[C@]4(C)[C@H]3CC[C@]12C)C(C)C [sitosterol]
9-18 grams of sitosterol per day, coarse powdered form, two earlier human studies
  decrease of the plasma cholesterol level: approximately 15%
